Results from patent US6670360B2, “Optically active pyrrolopyridazine derivatives” (Sankyo Company, Limited, priority 1999, dated 2003).

Assays:
gastric acid secretion = test: Gastric acid secretion inhibition activity in pylorus-ligated rats; assay type: in vivo; settings: for 50% inhibitory dose (ID50, mg/kg) against gastric acid secretion: pylorus-ligated rats, oral administration, four hours after administration
Text: Gastric Acid Secretion Inhibition Activity After groups of rats, each group consisting of 3 to 5 rats, were fasted overnight, they were subjected to midline abdominal incision and their pylorus was ligated under anesthesia with ether. The stomach and duodenum were returned to their original positions in the body, followed by closing at the abdominal incision part. A predetermined amount of a test compound was suspended in an aqueous solution containing 0.5% of sodium carboxymethylcellulose and 0.4% of Tween 80 (Polysorbate 80). The resulting suspension was orally administered to the rats. As a control, an aqueous suspension (suspending solvent) containing 0.5% of sodium carboxymethylcellulose and 0.4% of Tween 80 (Polysorbate 80) was orally administered to other rats. Four hours after administration of the test compound or suspending solvent, the rats were sacrificed by inhalation of CO2 gas. They were subjected to abdominal incision to remove their stomach. The content of the stomach was collected in a glass-made graduated centrifuge tube. After centrifugation, the amount (ml) of the supernatant and the amount (ml) of the precipitate were measured. The precipitate of the amount exceeding 0.5 ml was regarded as coprophage and removed from the data. The supernatant (100 μl) was poured into a test tube. Distilled water (4 ml) was added to the solution, and the solution was titrated to pH 7.0 with 0.01 N sodium hydroxide. A standard acid concentration solution obtained by adding 4 ml of distilled water to 100 μl of 0.1 N hydrochloric acid was titrated in a similar manner. […]

[1] = target: T1, proton potassium-adenosine triphosphatase (H+·K+-ATPase) (Sus scrofa, UniProt P19156); test: Test on activity of proton potassium-adenosine triphosphatase (H+·K+-ATPase); assay type: biochemical; settings: microsomal fraction of swine gastric mucosal layer, pH 6.85, 37° C.; read-out: 50% inhibitory concentration (IC50) against proton-potassium-adenosine triphosphatase
T1 construct: A microsomal fraction prepared in accordance with the method of Sachs, et al; from tissue; host or cells: swine gastric mucosa, microsomal fraction (density gradient ultracentrifugation)
Description: Test on Activity of Proton Potassium-adenosine Triphosphatase (H^+·K^+-ATPase) A microsomal fraction prepared in accordance with the method of Sachs, et al. [J. Bio., Chem., 251, 7690 (1976)] by homogenizing a fresh gastric mucosal layer of swine and then subjecting the homogenate to density gradient ultra centrifugation was employed as a proton potassium-adenosine triphosphatase preparation. A solution (10 μl) of a test compound dissolved in dimethyl sulfoxide was added to 0.75 ml of a 70 mM tris-hydrochloric acid buffer (5 mM magnesium chloride, 20 mM potassium chloride, pH=6.85) containing 30 to 80 μg/ml, in terms of a protein concentration, of an enzyme preparation. The mixture was incubated with 200 times/min of agitation at 37° C. for 45 minutes. The enzymatic reaction was started by adding 0.25 ml of a 8 mM solution of disodium adenosine triphosphate. After this enzymatic reaction was continued for 20 minutes, 1 ml of a 10% trichloroacetic acid-activated charcoal (100 mg) solution was added to terminate the reaction. The reaction mixture was centrifuged (at 4° C. and 3000 rpm) for 15 minutes. […] The amount of inorganic phosphoric acid in a reaction mixture free from potassium chloride was also measured. By subtracting this amount from the amount of inorganic phosphoric acid in the presence of potassium chloride, proton potassium-adenosine triphosphatase activity was determined. […]

[2] = system: Helicobacter pylori strains 9470, 9472 and 9474; test: Antibacterial action against Helicobacter pylori (MIC, agar dilution); assay type: cell-based; settings: 72 h, cultured at 37° C. for 3 days, microaerophilic conditions, read-out: MIC (Minimum Inhibitory Concentration) against Helicobacter pylori
Description: Antibacterial Action Against Helicobacter pylori The antibacterial activity of the invention compound was evaluated by using Helicobacter pylori strains 9470, 9472 and 9474 and determining MIC (Minimum Inhibitory Concentration) of the invention compound against Helicobacter pylori. Helicobacter pylori was cultured by plating for 4 days. A medium was prepared by dissolving Brain Heart Infusion Agar (product of Difco Laboratories) in a prescribed amount of distilled water, sterilizing in an autoclave, adding equine blood (product of Nippon Seibutsu Zairyo) to give its concentration of 7% and then solidifying the mixture. Under microaerophilic conditions, Helicobacter pylori which had been cultured at 37° C. for 4 days was suspended in physiological saline to give its viable count of about 10^8 CFU/ml. The suspension was then diluted to 100 times and a portion (about 10 μl) of the diluted suspension was inoculated in a medium for measuring MIC. The medium employed for measuring MIC has the same composition as the preculture medium. A compound of this invention was dissolved in dimethyl sulfoxide (DMSO) and two-fold serial dilutions were made with sterilized water. After mixing the solution and the medium in a ratio of 1:99, a solidified product in the Petri dish was employed as an MIC measuring medium. […]

T1 sequence (P19156 2-1034 limits assumed): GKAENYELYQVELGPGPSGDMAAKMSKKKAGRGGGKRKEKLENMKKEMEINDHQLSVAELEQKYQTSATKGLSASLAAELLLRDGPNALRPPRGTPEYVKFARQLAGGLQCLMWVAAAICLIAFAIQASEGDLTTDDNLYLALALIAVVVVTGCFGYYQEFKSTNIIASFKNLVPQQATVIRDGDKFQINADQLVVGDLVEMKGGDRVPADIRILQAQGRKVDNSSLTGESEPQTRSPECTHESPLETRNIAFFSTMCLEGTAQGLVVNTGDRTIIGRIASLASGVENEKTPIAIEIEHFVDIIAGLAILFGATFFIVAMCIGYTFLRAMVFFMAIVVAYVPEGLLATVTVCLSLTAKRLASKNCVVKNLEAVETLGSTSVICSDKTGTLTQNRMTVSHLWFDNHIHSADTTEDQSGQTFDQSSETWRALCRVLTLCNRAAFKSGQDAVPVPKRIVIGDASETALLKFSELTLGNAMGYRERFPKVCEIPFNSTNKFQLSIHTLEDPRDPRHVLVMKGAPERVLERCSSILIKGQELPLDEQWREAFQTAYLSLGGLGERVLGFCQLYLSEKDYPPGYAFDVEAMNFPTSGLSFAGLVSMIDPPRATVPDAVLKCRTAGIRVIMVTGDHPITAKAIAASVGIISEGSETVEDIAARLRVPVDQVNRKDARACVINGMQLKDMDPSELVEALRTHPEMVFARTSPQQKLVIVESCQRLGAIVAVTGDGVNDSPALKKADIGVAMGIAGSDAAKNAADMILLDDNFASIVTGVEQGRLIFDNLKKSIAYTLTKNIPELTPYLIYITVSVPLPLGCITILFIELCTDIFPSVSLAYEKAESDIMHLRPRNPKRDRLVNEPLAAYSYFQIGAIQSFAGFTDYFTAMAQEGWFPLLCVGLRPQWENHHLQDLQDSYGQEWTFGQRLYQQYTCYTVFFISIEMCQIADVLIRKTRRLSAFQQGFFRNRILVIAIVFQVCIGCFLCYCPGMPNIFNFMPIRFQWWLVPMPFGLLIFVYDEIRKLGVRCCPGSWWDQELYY
T1 sequence (P18434 whole entry partner): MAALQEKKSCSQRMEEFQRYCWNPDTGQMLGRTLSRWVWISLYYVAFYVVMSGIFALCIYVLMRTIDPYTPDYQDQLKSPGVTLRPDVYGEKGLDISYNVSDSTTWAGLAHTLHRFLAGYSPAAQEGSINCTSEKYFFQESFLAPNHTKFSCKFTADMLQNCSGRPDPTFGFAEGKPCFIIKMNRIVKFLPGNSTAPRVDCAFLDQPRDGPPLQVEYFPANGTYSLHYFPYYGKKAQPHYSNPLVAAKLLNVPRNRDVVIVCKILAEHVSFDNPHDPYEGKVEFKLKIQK

| SMILES | 50% inhibitory dose (ID50, mg/kg) against gastric acid secretion (gastric acid secretion) | IC50 [1] | MIC [2] | effects on gastric acid secretion relative to its racemate (times stronger) (gastric acid secretion; from ID50 values of Table 2, versus racemate (Compound A)) |
| --- | --- | --- | --- | --- |
| Cc1c(C)n(CC2CC2C)c2c(OCc3ccc(F)cc3)nncc12 (racemic) [Compound A, 7-(4-Fluorobenzyloxy)-1-[(E)-2-methylcyclopropylmethyl]-2,3-dimethylpyrrolo[2,3-d]pyridazine (racemate), reference compound] | 1.64 mg/kg | – | – | – |
| Cc1c(C)n(C[C@H]2C[C@@H]2C)c2c(OCc3ccc(F)cc3)nncc12 [Example 1, 7-(4-Fluorobenzyloxy)-2,3-dimethyl-1-[(1S,2S)-2-methylcyclopropylmethyl]pyrrolo[2,3-d]pyridazine] | 0.52 mg/kg | ≤ 295 nM | ≤ 12.5 µg/mL | about 3 times |
